# In patent US10681909B2, “Herbicidal triazoles” (FMC Corporation, priority 2014, dated 2020):
# Tests used:
# [1] = test system: waterhemp; assay: Test C postemergence; assay type: in vivo, Amaranthus rudis
# Outline: (§1)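 Seeds were planted in loam soil plus sand and sprayed preemergence. In parallel, potted plants in a peat-based medium were sprayed postemergence at 2 to 18 cm (1- to 4-leaf stage). Compounds were formulated in non-phytotoxic solvent with surfactant.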
# [2] = test system: barnyardgrass; assay: Test C preemergence; assay type: in vivo, Echinochloa crus-galli; details: for Plant response rating (scale of 0 to 100 where 0 is no effect and 100 is complete control): Barnyardgrass, preemergence; for Barnyardgrass plant response rating (0 to 100): Preemergence, visual rating after 13 to 15 d
# Outline: as §1
# [3] = test system: crabgrass, large; assay: Test C postemergence; assay type: in vivo, Digitaria sanguinalis
# Outline: as §1
# [4] = test system: barnyardgrass; assay: Test B flooded paddy test; assay type: in vivo, Echinochloa crus-galli; details: applied to paddy water at 2-leaf stage, visual rating after 13 to 15 d, scale 0 (no effect) to 100 (complete control)
# Outline: (§2)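 Pots were flooded to 3 cm above the soil at treatment, and compounds were applied directly into the paddy water. That depth was held throughout. After 13 to 15 d in a greenhouse, plants were rated visually against untreated controls.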
# [5] = test system: foxtail, giant; assay: Test A preemergence; assay type: in vivo, Setaria faberii; details: 0 to 100 scale (0 no effect, 100 complete control)
# Outline: (§3)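 Plant seeds in loam soil blended with sand, then apply test chemical preemergence as a directed soil spray; in parallel, spray potted seedlings (one- to two-leaf, 2 to 10 cm) postemergence. Both treatments use a non-phytotoxic solvent mixture with surfactant.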
# [6] = test system: morningglory; assay: Test C postemergence; assay type: in vivo, Ipomoea coccinea
# Outline: as §1
# [7] = test system: galium; assay: Test C postemergence; assay type: in vivo, Galium aparine
# Outline: as §1
# [8] = test system: sedge, umbrella; assay: Test B flooded paddy test; assay type: in vivo, Cyperus difformis; details: applied to paddy water at 2-leaf stage, visual rating after 13 to 15 d, scale 0 (no effect) to 100 (complete control)
# Outline: as §2
# [9] = test system: lambsquarters; assay: Test C postemergence; assay type: in vivo, Chenopodium album
# Outline: as §1
# [10] = test system: corn; assay: Test C postemergence; assay type: in vivo, Zea mays
# Outline: as §1
# [11] = test system: soybean; assay: Test C postemergence; assay type: in vivo, Glycine max
# Outline: as §1
# [12] = test system: pigweed; assay: Test A postemergence; assay type: in vivo, Amaranthus retroflexus; details: 0 to 100 scale (0 no effect, 100 complete control), approx. 10 d
# Outline: as §3
# [13] = test system: barnyardgrass; assay: Test A preemergence; assay type: in vivo, Echinochloa crus-galli; details: 0 to 100 scale (0 no effect, 100 complete control)
# Outline: as §3
# [14] = test system: wheat; assay: Test A postemergence; assay type: in vivo, Triticum aestivum; details: 0 to 100 scale (0 no effect, 100 complete control), approx. 10 d
# Outline: as §3
smiles,measurement,setting,value
"CCc1nc(-c2ccc(C(F)(F)F)cc2)nn1Cc1ccnc(C(F)(F)F)c1 [Compound 1, 4-[[5-ethyl-3-[4-(trifluoromethyl)phenyl]-1H-1,2,4-triazol-1-yl]methyl]-2-(trifluoromethyl)pyridine]",Plant response rating (scale of 0 to 100 where 0 is no effect and 100 is complete control),[1]; 31 g ai/ha,85
same,Plant response rating (scale of 0 to 100 where 0 is no effect and 100 is complete control),[1]; 62 g ai/ha,85
same,Plant response rating (scale of 0 to 100 where 0 is no effect and 100 is complete control),[1]; 125 g ai/ha,90
same,Plant response rating (scale of 0 to 100 where 0 is no effect and 100 is complete control),[1]; 250 g ai/ha,90
same,Plant response rating (scale of 0 to 100 where 0 is no effect and 100 is complete control),[2]; 125 g ai/ha,55
same,Plant response rating (scale of 0 to 100 where 0 is no effect and 100 is complete control),[2]; 250 g ai/ha,70
same,Barnyardgrass plant response rating (0 to 100),[2]; 31 g ai/ha,10
same,Barnyardgrass plant response rating (0 to 100),[2]; 62 g ai/ha,35
same,Plant response rating (scale of 0 to 100 where 0 is no effect and 100 is complete control),[3]; 31 g ai/ha,5
same,Plant response rating (scale of 0 to 100 where 0 is no effect and 100 is complete control),[3]; 62 g ai/ha,5
same,Plant response rating (scale of 0 to 100 where 0 is no effect and 100 is complete control),[3]; 125 g ai/ha,45
same,Plant response rating (scale of 0 to 100 where 0 is no effect and 100 is complete control),[3]; 250 g ai/ha,45
same,pest or weed control at 125 g/ha,"[4]; Echinochloa crus-galli, 360 h, 125 g ai/ha, read-out: Plant response rating, Barnyardgrass, Flood",40%
same,pest or weed control at 125 g/ha,"[5]; Setaria faberi, pre-emergence, 240 h, 125 g ai/ha, read-out: Plant response rating, Foxtail, Giant",100%
same,pest or weed control at 500 g/ha,"[5]; Setaria faberi, pre-emergence, 240 h, 500 g ai/ha, approx. 10 d, read-out: Plant response rating, Foxtail, Giant",100%
same,Plant response rating (scale of 0 to 100 where 0 is no effect and 100 is complete control),[6]; 31 g ai/ha,60
same,Plant response rating (scale of 0 to 100 where 0 is no effect and 100 is complete control),[6]; 62 g ai/ha,70
same,Plant response rating (scale of 0 to 100 where 0 is no effect and 100 is complete control),[6]; 125 g ai/ha,70
same,Plant response rating (scale of 0 to 100 where 0 is no effect and 100 is complete control),[6]; 250 g ai/ha,95
same,Plant response rating (scale of 0 to 100 where 0 is no effect and 100 is complete control),[7]; 31 g ai/ha,80
same,Plant response rating (scale of 0 to 100 where 0 is no effect and 100 is complete control),[7]; 62 g ai/ha,80
same,Plant response rating (scale of 0 to 100 where 0 is no effect and 100 is complete control),[7]; 125 g ai/ha,90
same,Plant response rating (scale of 0 to 100 where 0 is no effect and 100 is complete control),[7]; 250 g ai/ha,90
same,pest or weed control at 125 g/ha,"[8]; Cyperus difformis, 360 h, 125 g ai/ha, read-out: Plant response rating, Sedge, Umbrella, Flood",75%
same,Plant response rating (scale of 0 to 100 where 0 is no effect and 100 is complete control),[9]; 31 g ai/ha,70
same,Plant response rating (scale of 0 to 100 where 0 is no effect and 100 is complete control),[9]; 62 g ai/ha,70
same,Plant response rating (scale of 0 to 100 where 0 is no effect and 100 is complete control),[9]; 125 g ai/ha,75
same,Plant response rating (scale of 0 to 100 where 0 is no effect and 100 is complete control),[9]; 250 g ai/ha,80
same,Plant response rating (scale of 0 to 100 where 0 is no effect and 100 is complete control),[10]; 31 g ai/ha,15
same,Plant response rating (scale of 0 to 100 where 0 is no effect and 100 is complete control),[10]; 62 g ai/ha,15
same,Plant response rating (scale of 0 to 100 where 0 is no effect and 100 is complete control),[10]; 125 g ai/ha,20
same,Plant response rating (scale of 0 to 100 where 0 is no effect and 100 is complete control),[10]; 250 g ai/ha,20
same,Plant response rating (scale of 0 to 100 where 0 is no effect and 100 is complete control),[11]; 31 g ai/ha,20
same,Plant response rating (scale of 0 to 100 where 0 is no effect and 100 is complete control),[11]; 62 g ai/ha,35
same,Plant response rating (scale of 0 to 100 where 0 is no effect and 100 is complete control),[11]; 125 g ai/ha,50
same,Plant response rating (scale of 0 to 100 where 0 is no effect and 100 is complete control),[11]; 250 g ai/ha,50
same,pest or weed control at 125 g/ha,"[12]; Amaranthus retroflexus, post-emergence, 240 h, 125 g ai/ha, read-out: Plant response rating, Pigweed",100%
same,pest or weed control at 500 g/ha,"[12]; Amaranthus retroflexus, post-emergence, 240 h, 500 g ai/ha, read-out: Plant response rating, Pigweed",100%
same,pest or weed control at 125 g/ha,"[13]; Echinochloa crus-galli, pre-emergence, 240 h, 125 g ai/ha, read-out: Plant response rating, Barnyardgrass",80%
same,pest or weed control at 500 g/ha,"[13]; Echinochloa crus-galli, pre-emergence, 240 h, 500 g ai/ha, approx. 10 d, read-out: Plant response rating, Barnyardgrass",90%
same,plant injury at 125 g/ha,"[14]; Triticum aestivum, post-emergence, 240 h, 125 g ai/ha, read-out: Plant response rating, Wheat",30%
same,plant injury at 500 g/ha,"[14]; Triticum aestivum, post-emergence, 240 h, 500 g ai/ha, read-out: Plant response rating, Wheat",60%
Fc1ccc(-c2nc(OCC(F)(F)F)n(Cc3ccnc(C(F)(F)F)c3)n2)cc1 [Compound 30],Plant response rating (scale of 0 to 100 where 0 is no effect and 100 is complete control),[1]; 31 g ai/ha,95
same,Plant response rating (scale of 0 to 100 where 0 is no effect and 100 is complete control),[1]; 62 g ai/ha,98
same,Plant response rating (scale of 0 to 100 where 0 is no effect and 100 is complete control),[1]; 125 g ai/ha,95
same,Plant response rating (scale of 0 to 100 where 0 is no effect and 100 is complete control),[1]; 250 g ai/ha,98
same,Plant response rating (scale of 0 to 100 where 0 is no effect and 100 is complete control),[2]; 125 g ai/ha,85
same,Plant response rating (scale of 0 to 100 where 0 is no effect and 100 is complete control),[2]; 250 g ai/ha,98
same,Barnyardgrass plant response rating (0 to 100),[2]; 31 g ai/ha,40
same,Barnyardgrass plant response rating (0 to 100),[2]; 62 g ai/ha,85
same,Plant response rating (scale of 0 to 100 where 0 is no effect and 100 is complete control),[3]; 31 g ai/ha,20
same,Plant response rating (scale of 0 to 100 where 0 is no effect and 100 is complete control),[3]; 62 g ai/ha,15
same,Plant response rating (scale of 0 to 100 where 0 is no effect and 100 is complete control),[3]; 125 g ai/ha,35
same,Plant response rating (scale of 0 to 100 where 0 is no effect and 100 is complete control),[3]; 250 g ai/ha,60
same,"Plant response rating, Barnyardgrass, Flood",[4]; 250 g ai/ha,30
same,"Plant response rating, Foxtail, Giant",[5]; 125 g ai/ha,100
same,"Plant response rating, Foxtail, Giant","[5]; 500 g ai/ha, approx. 10 d",100
same,Plant response rating (scale of 0 to 100 where 0 is no effect and 100 is complete control),[6]; 31 g ai/ha,80
same,Plant response rating (scale of 0 to 100 where 0 is no effect and 100 is complete control),[6]; 62 g ai/ha,70
same,Plant response rating (scale of 0 to 100 where 0 is no effect and 100 is complete control),[6]; 125 g ai/ha,80
same,Plant response rating (scale of 0 to 100 where 0 is no effect and 100 is complete control),[6]; 250 g ai/ha,100
same,Plant response rating (scale of 0 to 100 where 0 is no effect and 100 is complete control),[7]; 31 g ai/ha,80
same,Plant response rating (scale of 0 to 100 where 0 is no effect and 100 is complete control),[7]; 62 g ai/ha,80
same,Plant response rating (scale of 0 to 100 where 0 is no effect and 100 is complete control),[7]; 125 g ai/ha,90
same,Plant response rating (scale of 0 to 100 where 0 is no effect and 100 is complete control),[7]; 250 g ai/ha,90
same,"Plant response rating, Sedge, Umbrella, Flood",[8]; 250 g ai/ha,90
same,Plant response rating (scale of 0 to 100 where 0 is no effect and 100 is complete control),[9]; 31 g ai/ha,70
same,Plant response rating (scale of 0 to 100 where 0 is no effect and 100 is complete control),[9]; 62 g ai/ha,85
same,Plant response rating (scale of 0 to 100 where 0 is no effect and 100 is complete control),[9]; 125 g ai/ha,95
same,Plant response rating (scale of 0 to 100 where 0 is no effect and 100 is complete control),[9]; 250 g ai/ha,95
same,Plant response rating (scale of 0 to 100 where 0 is no effect and 100 is complete control),[10]; 31 g ai/ha,15
same,Plant response rating (scale of 0 to 100 where 0 is no effect and 100 is complete control),[10]; 62 g ai/ha,10
same,Plant response rating (scale of 0 to 100 where 0 is no effect and 100 is complete control),[10]; 125 g ai/ha,25
same,Plant response rating (scale of 0 to 100 where 0 is no effect and 100 is complete control),[10]; 250 g ai/ha,20
same,Plant response rating (scale of 0 to 100 where 0 is no effect and 100 is complete control),[11]; 31 g ai/ha,25
same,Plant response rating (scale of 0 to 100 where 0 is no effect and 100 is complete control),[11]; 62 g ai/ha,45
same,Plant response rating (scale of 0 to 100 where 0 is no effect and 100 is complete control),[11]; 125 g ai/ha,60
same,Plant response rating (scale of 0 to 100 where 0 is no effect and 100 is complete control),[11]; 250 g ai/ha,75
same,"Plant response rating, Pigweed",[12]; 125 g ai/ha,100
same,"Plant response rating, Pigweed",[12]; 500 g ai/ha,100
same,"Plant response rating, Barnyardgrass",[13]; 125 g ai/ha,90
same,"Plant response rating, Barnyardgrass","[13]; 500 g ai/ha, approx. 10 d",100
same,"Plant response rating, Wheat",[14]; 125 g ai/ha,10
same,"Plant response rating, Wheat",[14]; 500 g ai/ha,30
